Patent US20190255086A1, “Compositions and Methods for Treating an Infection” (CMPD Licensing, LLC, priority 2015, published 2019)

System: Candida species
Assay: Expected efficacy of anti-fungal agents against various fungi (Table 4)

## C[C@@H]1[C@H](O)[C@@H](C)/C=C/C=C/CC/C=C/C=C/C=C/C=C/C(O[C@H]2O[C@H](C)[C@@H](O)[C@H](N)[C@@H]2O)CC2O[C@](O)(CC(O)C(O)CCC(O)CC(O)CC(O)CC(=O)O[C@H]1C)CC(O)C2C(=O)O (stereo partly shown) [Nystatin]
  Efficacy of various antifungal agents: yes
